Like-named read-outs stand apart in the source and are kept apart here.
Assays:
[1] = biological target: HDAC1 (Homo sapiens (Human), UniProt Q13547); experiment: HDAC inhibitory activity assay (as described in WO2008/062201), HDAC1; assay type: biochemical
[2] = biological target: HDAC6 (Homo sapiens (Human), UniProt Q9UBN7); experiment: HDAC inhibitory activity assay (as described in WO2008/062201), HDAC6; assay type: biochemical
[3] = test system: A549; experiment: In vitro cancer cell growth inhibition, A549; assay type: cell-based; settings: Homo sapiens
Source text: (§1) In Vitro Cancer Cell Growth Inhibition Data for Compound A

[4] = Comparative mouse pharmacokinetics (oral bioavailability); settings: in vivo, read-out: Oral bioavailability, F %
[5] = test system: PC-3; experiment: In vitro cancer cell growth inhibition, PC-3; assay type: cell-based; settings: Homo sapiens; PC-3 cancer cell growth inhibition
Source text: as §1

[6] = class symbol, read-out: IC50, HDAC1
[7] = class symbol, read-out: IC50, HDAC6

Sequence of HDAC1 (Q13547 whole entry, species assumed): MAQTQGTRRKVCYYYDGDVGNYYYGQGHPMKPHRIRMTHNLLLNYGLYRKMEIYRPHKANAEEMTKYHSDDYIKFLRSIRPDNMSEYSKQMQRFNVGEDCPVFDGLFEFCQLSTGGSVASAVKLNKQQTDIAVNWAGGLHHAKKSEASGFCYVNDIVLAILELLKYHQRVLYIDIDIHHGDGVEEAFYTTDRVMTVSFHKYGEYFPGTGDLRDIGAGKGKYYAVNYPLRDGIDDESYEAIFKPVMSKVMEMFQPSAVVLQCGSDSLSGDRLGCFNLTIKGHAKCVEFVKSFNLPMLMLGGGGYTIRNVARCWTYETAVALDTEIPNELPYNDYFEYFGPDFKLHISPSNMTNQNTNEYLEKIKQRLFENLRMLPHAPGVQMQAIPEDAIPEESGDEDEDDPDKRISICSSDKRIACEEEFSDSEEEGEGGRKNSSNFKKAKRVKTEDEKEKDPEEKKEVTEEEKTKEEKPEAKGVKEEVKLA
Sequence of HDAC6 (Q9UBN7 whole entry, species assumed): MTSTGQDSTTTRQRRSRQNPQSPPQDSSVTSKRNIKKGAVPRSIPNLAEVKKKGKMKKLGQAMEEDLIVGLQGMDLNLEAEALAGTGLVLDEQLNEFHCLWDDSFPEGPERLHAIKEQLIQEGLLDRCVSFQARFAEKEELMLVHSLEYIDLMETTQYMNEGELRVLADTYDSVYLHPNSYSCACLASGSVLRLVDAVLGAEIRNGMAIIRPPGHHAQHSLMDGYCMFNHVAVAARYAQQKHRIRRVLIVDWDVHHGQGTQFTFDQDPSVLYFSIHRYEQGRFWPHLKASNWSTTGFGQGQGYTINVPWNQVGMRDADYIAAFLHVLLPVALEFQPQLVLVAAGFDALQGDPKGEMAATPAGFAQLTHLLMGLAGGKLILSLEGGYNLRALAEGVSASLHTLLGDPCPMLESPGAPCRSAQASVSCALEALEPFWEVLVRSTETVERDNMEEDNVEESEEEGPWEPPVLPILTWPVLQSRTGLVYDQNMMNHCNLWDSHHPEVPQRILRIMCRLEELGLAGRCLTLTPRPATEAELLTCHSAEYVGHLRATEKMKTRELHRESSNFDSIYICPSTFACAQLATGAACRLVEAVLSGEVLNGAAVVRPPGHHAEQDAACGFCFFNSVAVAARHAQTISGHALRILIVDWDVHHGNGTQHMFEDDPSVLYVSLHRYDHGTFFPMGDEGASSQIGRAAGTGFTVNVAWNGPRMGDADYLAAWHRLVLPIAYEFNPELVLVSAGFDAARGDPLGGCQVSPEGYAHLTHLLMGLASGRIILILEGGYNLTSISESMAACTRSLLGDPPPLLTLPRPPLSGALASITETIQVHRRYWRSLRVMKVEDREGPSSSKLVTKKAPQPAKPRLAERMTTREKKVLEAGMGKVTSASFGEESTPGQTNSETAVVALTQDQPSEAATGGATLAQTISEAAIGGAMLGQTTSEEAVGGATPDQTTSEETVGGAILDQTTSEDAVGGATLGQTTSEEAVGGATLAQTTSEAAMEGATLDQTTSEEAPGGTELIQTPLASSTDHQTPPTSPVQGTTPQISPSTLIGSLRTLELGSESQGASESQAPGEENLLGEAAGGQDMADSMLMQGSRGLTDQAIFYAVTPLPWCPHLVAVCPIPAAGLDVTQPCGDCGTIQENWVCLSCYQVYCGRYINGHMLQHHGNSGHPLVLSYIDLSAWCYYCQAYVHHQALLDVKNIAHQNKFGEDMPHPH

| Structure (SMILES) | IC50 [1, 6] | IC50 [2, 7] | further results |
| --- | --- | --- | --- |
| O=C(CCCCCCN(c1ccc(F)cn1)c1nc(C(F)(F)F)ns1)NO [Example GG, 7-((5-Fluoropyridin-2-yl)(3-(trifluoromethyl)1,2,4-thiadiazol-5-yl)amino)-N-hydroxyheptanamide] | 500 to 1000 nM | < 500 nM | – |
| Cc1noc(N(CCCCCCCC(=O)NO)c2ccc(F)cn2)n1 [Example R, 8-((5-Fluoropyridin-2-yl)(3-methyl-1,2,4-oxadiazol-5-yl)amino)-N-hydroxyoctanamide] | 1000 to 10000 nM | < 500 nM | – |
| Cn1ccc(N(CCCCCCCC(=O)NO)c2cc(-c3ccc(F)cc3)ccn2)n1 [Example Z, 8-((4-(4-Fluorophenyl)pyridin-2-yl)(1-methyl-1H-pyrazol-3-yl)amino)-N-hydroxyoctanamide] | > 10000 nM | < 500 nM | – |
| Cc1nnc(N(CCCCCCCC(=O)NO)c2ccccn2)s1 [Example J, N-Hydroxy-8-((5-methyl-1,3,4-thiadiazol-2-yl)(pyridin-2-yl)amino)octanamide] | 1000 to 10000 nM | – | – |
| O=C(CCCCCCN(c1ccc(F)cn1)c1nc2ccccc2o1)NO [Example W, 7-(Benzo[d]oxazol-2-yl(5-fluoropyridin-2-yl)amino)-N-hydroxyheptanamide] | 1000 to 10000 nM | < 500 nM | – |
| Cn1c(N(CCCCCCC(=O)NO)c2ccccn2)nc2ccccc21 [Example M, N-Hydroxy-7-((1-methyl-1H-benzo[d]imidazol-2-yl)(pyridin-2-yl)amino)heptanamide] | 1000 to 10000 nM | – | – |
| O=C(CCCCCCCN(c1ccc(F)cn1)c1nc2ccccc2o1)NO [Example X, 8-(Benzo[d]oxazol-2-yl(5-fluoropyridin-2-yl)amino)-N-hydroxyoctanamide] | 1000 to 10000 nM | < 500 nM | – |
| Cc1nsc(N(CCCCCCC(=O)NO)c2ccccn2)n1 [Example A, N-Hydroxy-7-[(3-methyl-1,2,4-thiadiazol-5-yl)(pyridin-2-yl)amino]heptanamide] | – | – | IC50 [3]: 1.89 µM; IC50 [1]: < 500 nM; IC50 ([1]; numeric value, read-out: IC50, HDAC1): 226 nM; bioavailability [4]: 19%; IC50 [2]: < 500 nM; IC50 ([2]; numeric value, read-out: IC50, HDAC6): 1.76 nM; IC50 [5]: 2.32 µM |
| O=C(CCCCCCCN(c1ccccn1)c1nccs1)NO [Example LL, N-Hydroxy-8-(pyridin-2-yl(thiazol-2-yl)amino)octanamide] | 1000 to 10000 nM | – | – |
| Cc1nsc(N(CCCCCCCC(=O)NO)c2cc(-c3ccc(F)cc3)ccn2)n1 [Example FF, 8-((4-(4-Fluorophenyl)-pyridin-2-yl)(3-methyl-1,2,4-thiadiazol-5-yl)amino)-N-hydroxyoctanamide] | 1000 to 10000 nM | < 500 nM | – |
| Cc1noc(N(CCCCCCC(=O)NO)c2ccc(F)cn2)n1 [Example Q, 7-((5-Fluoropyridin-2-yl)(3-methyl-1,2,4-oxadiazol-5-yl)amino)-N-hydroxyheptanamide] | > 10000 nM | < 500 nM | – |
| Cn1ccc(N(CCCCCCCC(=O)NO)c2ccc(F)cn2)n1 [Example V, 8-((5-Fluoropyridin-2-yl)(1-methyl-1H-pyrazol-3-yl)amino)-N-hydroxyoctanamide] | > 10000 nM | < 500 nM | – |
| O=C(CCCCCCN(c1ccccn1)c1nccs1)NO [Example KK, N-Hydroxy-7-(pyridin-2-yl(thiazol-2-yl)amino)heptanamide] | 1000 to 10000 nM | – | – |
| O=C(CCCCCCCN(c1ccc(F)cn1)c1nc(C(F)(F)F)ns1)NO [Example HH, 8-((5-Fluoropyridin-2-yl)(3-(trifluoromethyl)1,2,4-thiadiazol-5-yl)amino)-N-hydroxyoctanamide] | 1000 to 10000 nM | < 500 nM | – |

More lines, main results first:

| IC50 [1, 6] | IC50 [2, 7] | Structure (SMILES) | further results |
| --- | --- | --- | --- |
| 1000 to 10000 nM | < 500 nM | Cn1ccc(N(CCCCCCC(=O)NO)c2ccc(F)cn2)n1 [Example U, 7-((5-Fluoropyridin-2-yl)(1-methyl-1H-pyrazol-3-yl)amino)-N-hydroxyheptanamide] | – |
| 1000 to 10000 nM | < 500 nM | Cc1nsc(N(CCCCCCCC(=O)NO)c2ccc(F)cn2)n1 [Example DD, 8-((5-Fluoropyridin-2-yl)(3-methyl-1,2,4-thiadiazol-5-yl)amino)-N-hydroxyoctanamide] | – |
| 1000 to 10000 nM | < 500 nM | Cc1nsc(N(CCCCCCC(=O)NO)c2cc(-c3ccc(F)cc3)ccn2)n1 [Example EE, 7-((4-(4-Fluorophenyl)pyridin-2-yl)(3-methyl-1,2,4-thiadiazol-5-yl)amino)-N-hydroxyheptanamide] | – |
| 1000 to 10000 nM | – | Cc1noc(N(CCCCCCCC(=O)NO)c2ccccn2)n1 [Example D, N-Hydroxy-8-((3-methyl-1,2,4-oxadiazol-5-yl)(pyridin-2-yl)amino)octanamide] | – |
| 500 to 1000 nM | < 500 nM | Cn1c(N(CCCCCCC(=O)NO)c2ccc(F)cn2)nc2ccccc21 [Example S, 7-((5-Fluoropyridin-2-yl)(1-methyl-1H-benzo[d]imidazol-2-yl)amino)-N-hydroxyheptanamide] | – |
| 1000 to 10000 nM | – | O=C(CCCCCCCN(c1ccccn1)c1ncns1)NO [Example P, N-Hydroxy-8-(pyridin-2-yl(1,2,4-thiadiazol-5-yl)amino)octanamide] | – |
| 1000 to 10000 nM | < 500 nM | Cn1c(N(CCCCCCCC(=O)NO)c2ccc(F)cn2)nc2ccccc21 [Example T, 8-((5-Fluoropyridin-2-yl)(1-methyl-1H-benzo[d]imidazol-2-yl)amino)-N-hydroxyoctanamide] | – |
| 500 to 1000 nM | – | O=C(CCCCCCN(c1ccccn1)c1ncns1)NO [Example O, N-Hydroxy-7-(pyridin-2-yl(1,2,4-thiadiazol-5-yl)amino)heptanamide] | – |
| 1000 to 10000 nM | – | O=C(CCCCCCCN(c1ccccn1)c1nncs1)NO [Example H, N-Hydroxy-8-(pyridin-2-yl(1,3,4-thiadiazol-2-yl)amino)octanamide] | – |
| 1000 to 10000 nM | – | O=C(CCCCCCN(c1ccccn1)c1nc(C(F)(F)F)ns1)NO [Example AA] | – |
| 500 to 1000 nM | < 500 nM | Cc1nsc(N(CCCCCCC(=O)NO)c2ccc(F)cn2)n1 [Example CC, 7-((5-Fluoropyridin-2-yl)(3-methyl-1,2,4-thiadiazol-5-yl)amino)-N-hydroxyheptanamide] | – |
| 500 to 1000 nM | – | Cc1nnc(N(CCCCCCC(=O)NO)c2ccccn2)s1 [Example I, N-Hydroxy-7-((5-methyl-1,3,4-thiadiazol-2-yl)(pyridin-2-yl)amino)heptanamide] | – |
| < 500 nM | < 500 nM | Cn1ccc(N(CCCCCCC(=O)NO)c2cc(-c3ccc(F)cc3)ccn2)n1 [Example Y, 7-((4-(4-Fluorophenyl)pyridin-2-yl)(1-methyl-1H-pyrazol-3-yl)amino)-N-hydroxyheptanamide] | – |
| < 500 nM | < 500 nM | Cc1nsc(N(CCCCCCC(=O)NO)c2cccnc2)n1 [Example B, N-Hydroxy-7-[(3-methyl-1,2,4-thiadiazol-5-yl)(pyridin-3-yl)amino]heptanamide] | – |
